The values that follow come from PubChem BioAssay AID248 (DTP/NCI, 2004).

The assay concerns L1210 leukemia ip in BDF1 mice, survival T/C. Kind of assay: NCI In Vivo Anticancer Drug Screen. Data for tumor model L1210 Leukemia (intraperitoneal) in B6D2F1 (BDF1) mice. The note with it: endpoint: mean survival time, higher = longer survival. The method, boiled down: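 Tumor was transplanted into mice, which were then dosed with test compound or vehicle alone. Survival was recorded for each group, and the treated figure was expressed relative to the control figure.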

Setting [1] is: dose: 100.0 mg/kg/injection, schedule: Q01DX001 (ip), vehicle: carboxymethylcellulose (CMC).
The mark [2] stands for this setting: dose: 200.0 mg/kg/injection, schedule: Q01DX001 (ip), vehicle: carboxymethylcellulose (CMC).
Setting [3] is: dose: 400.0 mg/kg/injection, schedule: Q01DX001 (ip), vehicle: carboxymethylcellulose (CMC).
[4] abbreviates: dose: 100.0 mg/kg/injection, schedule: Q01DX009 (ip), vehicle: saline with Tween-80.
The mark [5] stands for this setting: dose: 100.0 mg/kg/injection, schedule: Q04DX002 (ip), vehicle: saline with Tween-80.
Where [6] appears, read: dose: 200.0 mg/kg/injection, schedule: Q01DX009 (ip), vehicle: saline with Tween-80.
Setting [7] is: dose: 200.0 mg/kg/injection, schedule: Q04DX002 (ip), vehicle: saline with Tween-80.
[8] abbreviates: dose: 400.0 mg/kg/injection, schedule: Q01DX009 (ip), vehicle: saline with Tween-80.
Setting [9] is: dose: 400.0 mg/kg/injection, schedule: Q04DX002 (ip), vehicle: saline with Tween-80.
The mark [10] stands for this setting: dose: 50.0 mg/kg/injection, schedule: Q01DX009 (ip), vehicle: Klucel (hydroxypropylcellulose) (HPC).
[11] abbreviates: dose: 100.0 mg/kg/injection, schedule: Q04DX003 (ip), vehicle: saline with Tween-80.
Setting [12] is: dose: 400.0 mg/kg/injection, schedule: Q04DX003 (ip), vehicle: saline with Tween-80.

Where “and” joins values, the source holds several entries; their conditions need not be identical. Identical values can stand only once. Toxic doses and inconclusive results are not listed.

On to `C=C(NC(=O)C(=C)NC(=O)c1csc(C2=NC3c4csc(n4)C4NC(=O)c5csc(n5)C(C(C)(O)C(C)O)NC(=O)C5CSC(=N5)/C(=C/C)NC(=O)C(C(C)O)NC(=O)c5csc(n5)C3(CC2)NC(=O)C(C)NC(=O)C(=C)NC(=O)C(C)NC(=O)C(C(C)CC)NC2C=Cc3c(C(C)O)cc(nc3C2O)C(=O)OC4C)n1)C(N)=O` (centres undefined), for which the T/C under setting [1] was 110 % of control; the T/C (dose: 100.0 mg/kg/injection, schedule: Q04DX003 (ip), vehicle: saline) was 113 % of control; the T/C (dose: 178.0 mg/kg/injection, schedule: Q01DX001 (ip), vehicle: saline) is 117 % of control; the T/C under setting [2] was 112 % of control; the T/C under setting [3] is 112 % of control.
As to `Cc1cnc(C#N)c(-n2ccnc2)n1`, the T/C is, setting by setting: (dose: 50.0 mg/kg/injection, schedule: Q01DX009 (ip), vehicle: water) 107 % of control; (dose: 100.0 mg/kg/injection, schedule: Q01DX009 (ip), vehicle: water) 94 % of control; (dose: 100.0 mg/kg/injection, schedule: Q04DX003 (ip), vehicle: water) 108 % of control; (dose: 200.0 mg/kg/injection, schedule: Q01DX009 (ip), vehicle: water) 92 % of control; (dose: 200.0 mg/kg/injection, schedule: Q04DX003 (ip), vehicle: water) 98 % of control.
In the case of `CN(C)P(=O)(N(C)C)N1CC1`, the T/C (dose: 0.75 mg/kg/injection, schedule: Q01DX009 (ip), vehicle: saline) is 98 % of control; the T/C (dose: 1.5 mg/kg/injection, schedule: Q01DX009 (ip), vehicle: saline) was 103 % of control; the T/C (dose: 3.7 mg/kg/injection, schedule: Q01DX009 (ip), vehicle: saline) was 101 % of control; the T/C (dose: 3.75 mg/kg/injection, schedule: Q01DX009 (ip), vehicle: saline) is 98 % of control; the T/C (dose: 7.5 mg/kg/injection, schedule: Q01DX009 (ip), vehicle: saline) is 113 % of control and 115 % of control; the T/C (dose: 15.0 mg/kg/injection, schedule: Q01DX009 (ip), vehicle: saline) was 120 % of control. The T/C reads like this: (dose: 30.0 mg/kg/injection, schedule: Q01DX001 (ip), vehicle: saline) 111 % of control; (dose: 30.0 mg/kg/injection, schedule: Q01DX009 (ip), vehicle: saline) 173 % of control.
`CCOC(=O)C(Cc1ccc(O)cc1)Nc1nc2ccccc2o1` (centres undefined): the T/C under setting [1] is 96 % of control, the T/C under setting [2] was 96 % of control and the T/C under setting [3] is 96 % of control.
With `CCCCOC(=O)CNC(=O)c1ccc([N+](=O)[O-])s1`, the T/C (dose: 50.0 mg/kg/injection, schedule: Q01DX005 (ip), vehicle: saline) is 102 % of control; the T/C (dose: 100.0 mg/kg/injection, schedule: Q01DX005 (ip), vehicle: saline) was 98 % of control; the T/C (dose: 400.0 mg/kg/injection, schedule: Q01DX005 (ip), vehicle: saline) was 91 % of control.
As for `O=C(/C=C\c1cccc2ccccc12)c1ccc2ccccc2c1`, the T/C is, setting by setting: under setting [4], 100 % of control; under setting [5], 88 % of control; under setting [6], 90 % of control; under setting [7], 88 % of control; under setting [8], 93 % of control; under setting [9], 88 % of control.
On to `O=C(CC(C#Cc1ccccc1)c1ccccc1)c1ccccc1` (centres undefined), for which the T/C is 97 % of control (dose: 75.0 mg/kg/injection, schedule: Q04DX003 (ip), vehicle: Klucel (hydroxypropylcellulose) (HPC)); 101 % of control (dose: 150.0 mg/kg/injection, schedule: Q04DX003 (ip), vehicle: Klucel (hydroxypropylcellulose) (HPC)); 94 % of control (dose: 300.0 mg/kg/injection, schedule: Q04DX003 (ip), vehicle: Klucel (hydroxypropylcellulose) (HPC)).
In the case of `[Cl][Sb]([Cl])([c]1ccccc1)([c]1ccccc1)[c]1ccccc1`, the T/C (dose: 12.5 mg/kg/injection, schedule: Q01DX009 (ip), vehicle: Klucel (hydroxypropylcellulose) (HPC)) is 95 % of control; the T/C (dose: 25.0 mg/kg/injection, schedule: Q01DX009 (ip), vehicle: Klucel (hydroxypropylcellulose) (HPC)) is 93 % of control; the T/C (dose: 25.0 mg/kg/injection, schedule: Q04DX002 (ip), vehicle: saline with Tween-80) was 93 % of control; the T/C (dose: 50.0 mg/kg/injection, schedule: Q01DX001 (ip), vehicle: carboxymethylcellulose (CMC)) was 96 % of control; the T/C under setting [10] was 102 % of control and 91 % of control; the T/C (dose: 50.0 mg/kg/injection, schedule: Q04DX002 (ip), vehicle: saline with Tween-80) is 97 % of control. For the same compound, the T/C is, setting by setting: under setting [1], 96 % of control; under setting [5], 101 % of control; (dose: 100.0 mg/kg/injection, schedule: Q04DX003 (ip), vehicle: Klucel (hydroxypropylcellulose) (HPC)) 102 % of control; under setting [2], 114 % of control; (dose: 200.0 mg/kg/injection, schedule: Q04DX003 (ip), vehicle: Klucel (hydroxypropylcellulose) (HPC)) 96 % of control; under setting [3], 93 % of control. Further, under “dose: 400.0 mg/kg/injection, schedule: Q04DX003 (ip), vehicle: Klucel (hydroxypropylcellulose) (HPC)”, the T/C is 105 % of control.
As to `O=C(Nc1ccc(Cl)cc1[N+](=O)[O-])Oc1ccc(-c2ccccc2)cc1Cl`, the T/C is 92 % of control (dose: 100.0 mg/kg/injection, schedule: Q01DX001 (ip), vehicle: saline with Tween-80); 95 % of control and 91 % of control under setting [4]; 101 % of control and 102 % of control under setting [5]; 97 % of control under setting [11]; 94 % of control (dose: 200.0 mg/kg/injection, schedule: Q01DX001 (ip), vehicle: saline with Tween-80); 94 % of control and 89 % of control under setting [6]. The T/C is 101 % of control and 91 % of control under setting [7]; 103 % of control (dose: 200.0 mg/kg/injection, schedule: Q04DX003 (ip), vehicle: saline with Tween-80); 89 % of control (dose: 400.0 mg/kg/injection, schedule: Q01DX001 (ip), vehicle: saline with Tween-80); 99 % of control and 103 % of control under setting [8]; 88 % of control and 91 % of control under setting [9]; 103 % of control under setting [12].
Take `N#Cc1c(Oc2ccccc2)c(F)c(Oc2ccccc2)c(F)c1Oc1ccccc1`: the T/C is 100 % of control under setting [4], 91 % of control under setting [6] and 92 % of control under setting [8].
`CCOC(=O)C1Oc2ccc(Cl)cc2C1=O` (centres undefined): the T/C reads like this: (dose: 100.0 mg/kg/injection, schedule: Q04DX002 (ip), vehicle: gum acacia) 97 % of control; (dose: 200.0 mg/kg/injection, schedule: Q04DX002 (ip), vehicle: gum acacia) 97 % of control; (dose: 400.0 mg/kg/injection, schedule: Q04DX002 (ip), vehicle: gum acacia) 101 % of control.
Turning to `O=S1(=O)CCCC(c2ccccc2)=C1c1ccccc1`, the T/C reads like this: under setting [10], 102 % of control; (dose: 100.0 mg/kg/injection, schedule: Q01DX009 (ip), vehicle: Klucel (hydroxypropylcellulose) (HPC)) 105 % of control; (dose: 200.0 mg/kg/injection, schedule: Q01DX009 (ip), vehicle: Klucel (hydroxypropylcellulose) (HPC)) 91 % of control.
As to `NC(=O)N/N=C/c1ccc[n+]([O-])c1`, the T/C (dose: 37.5 mg/kg/injection, schedule: Q04DX002 (ip), vehicle: saline with Tween-80) was 102 % of control; the T/C (dose: 75.0 mg/kg/injection, schedule: Q04DX002 (ip), vehicle: saline with Tween-80) is 108 % of control; the T/C under setting [5] was 86 % of control; the T/C (dose: 150.0 mg/kg/injection, schedule: Q04DX002 (ip), vehicle: saline with Tween-80) was 97 % of control; the T/C under setting [9] was 96 % of control.
Turning to `O=[N+]([O-])c1ccc(/C=N/N(Cc2ccccc2)c2ccccc2)s1`, the T/C by setting is: under setting [11], 87 % of control; under setting [12], 89 % of control.
